Patent US20260234112A1, “COMPOUNDS, COMPOSITIONS, AND METHODS OF USE THEREOF” (Type6 Therapeutics, Inc., priority 2023, published 2026)

Target: T1, Cdk2(2-298) (Homo sapiens, UniProt P24941)
T1 construct: Biotinylated N-terminal avi-tagged Cdk2(2-298) or Cdk1(1-297) was immobilized
Assay: Surface Plasmon Resonance (SPR) compound interaction, Biacore 8K
Assay type: binding
Settings: single-cycle kinetics (SCK, "S"), dissociation 1800 sec, read-out: Activity rating (KD)
Method: Compound interaction was profiled using a Biacore 8K instrument (Cytiva). Biotinylated N-terminal avi-tagged Cdk2(2-298) or Cdk1(1-297) was immobilized on a series S sensor Chip SA at a capture level between 2500 RU and 3000 RU (Cdk2) or 7000 RU (Cdk1) in buffer (25 mM HEPES, 150 mM NaCl, 0.05% Tween20, pH 7.5). A compound dilution plate (8 concentrations, 3-fold dilution) in DMSO was prepared (100× assay concentration). From this plate, compound DMSO stock solution was transferred into buffer, yielding a final DMSO concentration of 1% in assay. The remaining buffer was supplemented with 1% DMSO. Compounds were injected in a series of increasing concentrations in multi-cycle kinetics (MCK, “M”) or single-cycle kinetics (SCK, “S”) mode at a flow rate of 30 μl/min for 120 sec and dissociation was profiled for 180 sec (MCK) or 1800 sec (SCK). Data were analysed using Biacore Insight Evaluation Software (Cytiva).

Kd [nM] | Compound
100 to 1000 | N[C@H]1CC[C@H](Nc2nccc(-c3cnccc3Oc3ccc(NS(=O)(=O)c4ccccc4)c(Cl)c3)n2)CC1 [Compound 61, N-[4-[[3-[2-[(1r,4r)(4-Aminocyclohexyl)amino]pyrimidin-4-yl]-4-pyridyl]oxy]-2-chiorophenyl] benzenesulfonamide]
100 to 1000 | N[C@H]1CC[C@H](Nc2nccc(-c3cnccc3Oc3ccc(NS(=O)(=O)c4ccccc4)c(Br)c3)n2)CC1 [Compound 62, N-[4-[[3-[2-[(1r,4r)(4-Aminocyclohexyl)amino]pyrimidin-4-yl]-4-pyridyl]oxy]-2-bromophenyl] benzenesulfonamide]
1000 to 5000 | N[C@H]1CC[C@H](Nc2nccc(-c3cnccc3Oc3cc(Cl)c(NS(=O)(=O)c4ccccc4)c(Cl)c3)n2)CC1 [Compound 63, N-[4-[[3-[2-[(1r,4r)(4-Aminocyclohexyl)amino]pyrimidin-4-yl]-4-pyridyl]oxy]-2,6-dichlorophenyl] benzenesulfonamide]
≤ 10 | N[C@H]1CC[C@H](Nc2nccc(-c3cnccc3Oc3ccc(NS(=O)(=O)c4ccccc4F)cc3F)n2)CC1 [Compound 64, N-[4-[[3-[2-[(1r,4r)(4-Aminocyclohexyl)amino]pyrimidin-4-yl]-4-pyridyl]oxy]-3-fluorophenyl] 2-fluorobenzenesulfonamide]
≤ 10 | N[C@H]1CC[C@H](Nc2nccc(-c3cnccc3Oc3ccc(NS(=O)(=O)c4ccccc4I)cc3F)n2)CC1 [Compound 65, N-[4-[[3-[2-[(1r,4r)(4-Aminocyclohexyl)amino]pyrimidin-4-yl]-4-pyridyl]oxy]-3-fluorophenyl] 2-iodobenzenesulfonamide]
100 to 1000 | CC(C)(C)c1ccccc1S(=O)(=O)Nc1ccc(Oc2ccncc2-c2ccnc(N[C@H]3CC[C@H](N)CC3)n2)c(F)c1 [Compound 66, N-[4-[[3-[2-[(1r,4r)(4-Aminocyclohexyl)amino]pyrimidin-4-yl]-4-pyridyl]oxy]-3-fluorophenyl] 2-tert-butylbenzenesulfonamide]
≤ 10 | N#Cc1ccccc1S(=O)(=O)Nc1ccc(Oc2ccncc2-c2ccnc(N[C@H]3CC[C@H](N)CC3)n2)c(F)c1 [Compound 67, N-[4-[[3-[2-[(1r,4r)(4-Aminocyclohexyl)amino]pyrimidin-4-yl]-4-pyridyl]oxy]-3-fluorophenyl] 2-cyanobenzenesulfonamide]
100 to 1000 | N[C@H]1CC[C@H](Nc2nccc(-c3cnccc3Oc3ccc(NS(=O)(=O)C4CCCCC4)cc3F)n2)CC1 [Compound 68, N-[4-[[3-[2-[(1r,4r)(4-Aminocyclohexyl)amino]pyrimidin-4-yl]-4-pyridyl]oxy]-3-fluorophenyl] cyclohexylsulfonamide]
11 to 100 | N[C@H]1CC[C@H](Nc2nccc(-c3cnccc3Oc3ccc(NS(=O)(=O)c4cccc5ccccc45)cc3F)n2)CC1 [Compound 69, N-[4-[[3-[2-[(1r,4r)(4-Aminocyclohexyl)amino]pyrimidin-4-yl]-4-pyridyl]oxy]-3-fluorophenyl] naphthalene-1-sulfonamide]
≤ 10 | O=S(=O)(Nc1ccc(Oc2ccncc2-c2ccnc(N[C@H]3CCCNC3)n2)c(F)c1)c1cccc2ccccc12 [Compound 70, N-[3-Fluoro-4-[[3-[2-[[(3S)-3-piperidyl]amino]pyrimidin-4-yl]-4-pyridyl]oxy]phenyl] naphthalene-1-sulfonamide]
≤ 10 | CCc1ccccc1S(=O)(=O)Nc1ccc(Oc2ccncc2-c2ccnc(N[C@H]3CC[C@H](N)CC3)n2)c(F)c1 [Compound 71, N-[4-[[3-[2-(1r,4r)[(4-Aminocyclohexyl)amino]pyrimidin-4-yl]-4-pyridyl]oxy]-3-fluorophenyl] 2-ethylbenzenesulfonamide]
11 to 100 | N[C@H]1CC[C@H](Nc2nccc(-c3cnccc3Oc3ccc(NS(=O)(=O)c4ccccc4-c4ccccc4)cc3F)n2)CC1 [Compound 72, N-[4-[[3-[2-(1r,4r)[(4-Aminocyclohexyl)amino]pyrimidin-4-yl]-4-pyridyl]oxy]-3-fluorophenyl] 2-phenylbenzenesulfonamide]
11 to 100 | C#Cc1ccccc1S(=O)(=O)Nc1ccc(Oc2ccncc2-c2ccnc(N[C@H]3CC[C@H](N)CC3)n2)c(F)c1 [Compound 73, N-[4-[[3-[2-(1r,4r)[(4-Aminocyclohexyl)amino]pyrimidin-4-yl]-4-pyridyl]oxy]-3-fluorophenyl] 2-ethynylbenzenesulfonamide]
> 5000 | N[C@H]1CC[C@H](Nc2nccc(-c3cnccc3Oc3ccc(NS(=O)(=O)C45CC6CC(CC(C6)C4)C5)cc3F)n2)CC1 [Compound 74, N-[4-[[3-[2-(1r,4r)[(4-Aminocyclohexyl)amino]pyrimidin-4-yl]-4-pyridyl]oxy]-3-fluorophenyl] adamant-1-ylsulfonamide]
100 to 1000 | N[C@H]1CC[C@H](Nc2nccc(-c3cnccc3Oc3ccc(NS(=O)(=O)C4CC5CCC4C5)cc3F)n2)CC1 (stereo partly drawn) [Compound 75, N-[4-[[3-[2-(1r,4r)[(4-Aminocyclohexyl)amino]pyrimidin-4-yl]-4-pyridyl]oxy]-3-fluorophenyl] [R,S]-exo-norborn-2-ylsulfonamide]
100 to 1000 | CN(C)[C@H]1CC[C@H](Nc2nccc(-c3cnccc3Oc3ccc(NC(=O)c4ccccc4Cl)cc3F)n2)CC1 [Compound 76, N-[4-[[3-[2-[(1r,4r)(4-(N,N-Dimethylamino)cyclohexyl)amino]pyrimidin-4-yl]-4-pyridyl]oxy]-3-fluorophenyl] 2-chlorobenzamide]
11 to 100 | CN1CCC(Nc2nccc(-c3cnccc3Oc3ccc(NS(=O)(=O)c4ccccc4Cl)cc3F)n2)CC1 [Compound 77, N-[3-Fluoro-4-[[3-[2-[[N-methylpiperid-4-yl]amino]pyrimidin-4-yl]-4-pyridyl]oxy]phenyl] 2-chlorobenzenesulfonamide]
11 to 100 | CN(C)[C@H]1CC[C@H](Nc2nccc(-c3cnccc3Oc3ccc(NS(=O)(=O)c4ccccc4Cl)cc3F)n2)CC1 [Compound 78, N-[4-[[3-[2-[(1r,4r)(4-(N,N-Dimethylamino)cyclohexyl)amino]pyrimidin-4-yl]-4-pyridyl]oxy]-3-fluorophenyl] 2-chlorobenzenesulfonamide]

Kd [nM] | Compound
≤ 10 | N[C@H]1CC[C@H](Nc2nccc(-c3cnccc3Oc3ccc(NS(=O)(=O)c4ccccc4Cl)c(F)c3)n2)CC1 [Compound 79, N-[4-[[3-[2-[(1r,4r)(4-Aminocyclohexyl)amino]pyrimidin-4-yl]-4-pyridyl]oxy]-2-fluorophenyl] 2-chlorobenzenesulfonamide]
100 to 1000 | N[C@H]1CC[C@H](Nc2nccc(-c3cnccc3Oc3ccc(NS(=O)(=O)c4ccc(CO)cc4F)cc3F)n2)CC1 [Compound 81]
100 to 1000 | N[C@H]1CC[C@H](Nc2nccc(-c3cnccc3Oc3ccc(NS(=O)(=O)c4ccc(CO)cc4F)c(F)c3)n2)CC1 [Compound 82, N-82[4-[[3-[2-(1r,4r)[(4-Aminocyclohexyl)amino]pyrimidin-4-yl]-4-pyridyl]oxy]-2-fluorophenyl] 2-fluoro-4-(hydroxymethyl)benzenesulfonamide]
100 to 1000 | N[C@H]1CC[C@H](Nc2nccc(-c3cnccc3Oc3ccc(NS(=O)(=O)c4ccc(CCO)cc4F)cc3F)n2)CC1 [Compound 83, N-[4-[[3-[2-(1r,4r)[(4-Aminocyclohexyl)amino]pyrimidin-4-yl]-4-pyridyl]oxy]-3-fluorophenyl] 2-fluoro-4-(2-hydroxyethyl)benzenesulfonamide]
100 to 1000 | N[C@H]1CC[C@H](Nc2nccc(-c3cnccc3Oc3ccc(NS(=O)(=O)c4ccc(CCO)cc4F)c(F)c3)n2)CC1 [Compound 84, N-[4-[[3-[2-(1r,4r)[(4-Aminocyclohexyl)amino]pyrimidin-4-yl]-4-pyridyl]oxy]-2-fluorophenyl] 2-fluoro-4-(2-hydroxyethyl)benzenesulfonamide]
100 to 1000 | CN(C)CCNc1nccc(-c2cnccc2Oc2ccc(NS(=O)(=O)c3ccccc3Cl)cc2F)n1 [Compound 85]
100 to 1000 | O=S(=O)(Nc1ccc(Oc2ccncc2-c2ccnc(NCCN3CCOCC3)n2)c(F)c1)c1ccccc1Cl [Compound 86]
100 to 1000 | O=S(=O)(Nc1ccc(Oc2ccncc2-c2ccnc(NCCOCCO)n2)c(F)c1)c1ccccc1Cl [Compound 87]
≤ 10 | O=S(=O)(Nc1ccc(Oc2ccncc2-c2ccnc(NC3COC3)n2)c(F)c1)c1ccccc1Cl [Compound 88]
11 to 100 | O=S(=O)(Nc1ccc(Oc2ccncc2-c2ccnc(NC3COC3)n2)c(F)c1)c1ccccc1Cl [Compound 89]
100 to 1000 | O=S(=O)(Nc1ccc(Oc2ccncc2-c2ccnc(NCCN3CCCC3)n2)c(F)c1)c1ccccc1Cl [Compound 90]
100 to 1000 | COCCOCCNc1nccc(-c2cnccc2Oc2ccc(NS(=O)(=O)c3ccccc3Cl)cc2F)n1 [Compound 91]
≤ 10 | O=S(=O)(Nc1ccc(Oc2ccncc2-c2ccnc(NC3CC4(CNC4)C3)n2)c(F)c1)c1ccccc1Cl [Compound 92]
100 to 1000 | CN1CC[C@H](Nc2nccc(-c3cnccc3Oc3ccc(NS(=O)(=O)c4ccccc4Cl)cc3F)n2)C1 [Compound 93]
100 to 1000 | O=S(=O)(Nc1ccc(Oc2ccncc2-c2ccnc(NCCN3CCC3)n2)c(F)c1)c1ccccc1Cl [Compound 94]
11 to 100 | O=S(=O)(Nc1ccc(Oc2ccncc2-c2ccnc(NCCn3ccnc3)n2)c(F)c1)c1ccccc1Cl [Compound 95]
100 to 1000 | O=S(=O)(Nc1ccc(Oc2ccncc2-c2ccnc(NCCc3ncc[nH]3)n2)c(F)c1)c1ccccc1Cl [Compound 96]
100 to 1000 | O=S(=O)(Nc1ccc(Oc2ccncc2-c2ccnc(NCCNCCO)n2)c(F)c1)c1ccccc1Cl [Compound 97]
